Reference: patent publication US11377448B2, “Crystalline sodium salt of 5-methyl-(6S)-tetrahydrofolic acid” (priority 2017, dated 2022)

What was measured:
[1] = Long-term stability at 40° C./75% rh, content by HPLC; assay type: physicochemical; settings: for Pyrazino-s-triazine derivative of 4α-hydroxy-5-methyl-THF (MeFox) (% w/w): major degradation product; for 5-methyl-(6S)-tetrahydrofolic acid (% rel.): relative to initial value
Experimental: (§1) Amorphous monosodium salt of 5-methyl-(6S)-tetrahydrofolic acid prepared according to Reference Example 6, crystalline calcium salt of 5-methyl-(6S)-tetrahydrofolic acid, prepared according to literature procedures (EP 1 044 975 B1) and crystalline sodium salt of 5-methyl-(6S)-tetrahydrofolic acid, prepared as disclosed in Example 1, were stored at 40° C./75% rh. The content of 5-methyl-(6S)-tetrahydrofolic acid remaining in the sample was measured by HPLC at periodic intervals (% w/w). The content of 5-methyl-(6S)-tetrahydrofolic acid remaining was also compared to the initial value at the time of preparation (% rel.). Additionally the content of the pyrazino-s-triazine derivative of 4α-hydroxy-5-methyl-THF (MeFox), a major degradation product, was measured by HPLC at periodic intervals and disclosed as absolute values (% w/w).

[2] = Long-term stability at 25° C./60% rh, content by HPLC; settings: for 5-methyl-(6S)-tetrahydrofolic acid (% w/w) / Pyrazino-s-triazine derivative of 4α-hydroxy-5-methyl-THF (MeFox) (% w/w) / 5-methyl-(6S)-tetrahydrofolic acid (% rel.): 25° C./60% rh; for Pyrazino-s-triazine derivative of 4α-hydroxy-5-methyl-THF (MeFox) (% w/w): major degradation product; for 5-methyl-(6S)-tetrahydrofolic acid (% rel.): relative to initial value
Experimental: as §1, with “25° C./60%” for “40° C./75%”, “samples” for “sample”

[3] = purified/de-ionized water, room temperature, agitated and briefly sonicated
Experimental: The measurement of the kinetic solubility was conducted as described in the experimental part.
50 mg of crystalline sodium salt of 5-methyl-(6S)-tetrahydrofolic acid (according to Example 1) is weighed into a 4 ml glass vial with screw cap. Then 0.5 ml of purified/de-ionized water is added.
2.535 ml of purified/de-ionized water is added to the solid using an adjustable volumetric pipette. The mixture is vigorously agitated at room temperature and briefly sonicated.

In the case of CN1c2c(nc(N)[nH]c2=O)NC[C@@H]1CNc1ccc(C(=O)N[C@@H](CCC(=O)[O-])C(=O)O)cc1.[Na+] [5-methyl-(6S)-tetrahydrofolic acid monosodium salt], the “5-methyl-(6S)-tetrahydrofolic acid (% w/w)” value ([1]; 0 months) is reported as 84.9 % w/w, the “Pyrazino-s-triazine derivative of 4α-hydroxy-5-methyl-THF (MeFox) (% w/w)” value (“Pyrazino-s-triazine derivative … (% w/w)” for short) ([1]; 0 months) is reported as 0.43 % w/w and the “5-methyl-(6S)-tetrahydrofolic acid (% rel.)” value ([1]; 0 months) is reported as 100.0 % rel. The “5-methyl-(6S)-tetrahydrofolic acid (% w/w)” value ([1]; 3 months) was 61.6 % w/w, the “Pyrazino-s-triazine derivative … (% w/w)” value ([1]; 3 months) was 2.79 % w/w and the “5-methyl-(6S)-tetrahydrofolic acid (% rel.)” value ([1]; 3 months) was 72.6 % rel. For the same molecule, the “5-methyl-(6S)-tetrahydrofolic acid (% w/w)” value ([2]; 0 months) was 84.9 % w/w, the “Pyrazino-s-triazine derivative … (% w/w)” value ([2]; 0 months) was 0.43 % w/w and the “5-methyl-(6S)-tetrahydrofolic acid (% rel.)” value ([2]; 0 months) was 100.0 % rel. The “5-methyl-(6S)-tetrahydrofolic acid (% w/w)” value ([2]; 3 months) was 60.6 % w/w, the “Pyrazino-s-triazine derivative … (% w/w)” value ([2]; 3 months) was 2.60 % w/w and the “5-methyl-(6S)-tetrahydrofolic acid (% rel.)” value ([2]; 3 months) was 71.3 % rel. The “5-methyl-(6S)-tetrahydrofolic acid (% w/w)” value ([2]; 6 months) was 63.2 % w/w, the “Pyrazino-s-triazine derivative … (% w/w)” value ([2]; 6 months) was 2.75 % w/w and the “5-methyl-(6S)-tetrahydrofolic acid (% rel.)” value ([2]; 6 months) was 74.5 % rel.
With CN1c2c([nH]c(N)nc2=O)NC[C@@H]1CNc1ccc(C(=O)N[C@@H](CCC(=O)[O-])C(=O)[O-])cc1.[Ca+2] [calcium salt of 5-methyl-(6S)-tetrahydrofolic acid] the “5-methyl-(6S)-tetrahydrofolic acid (% w/w)” value ([1]; 0 months) was 80.7 % w/w, the “Pyrazino-s-triazine derivative … (% w/w)” value ([1]; 0 months) was 0.20 % w/w and the “5-methyl-(6S)-tetrahydrofolic acid (% rel.)” value ([1]; 0 months) was 100.0 % rel. For the same molecule, the “5-methyl-(6S)-tetrahydrofolic acid (% w/w)” value ([1]; 3 months) was 78.5 % w/w, the “Pyrazino-s-triazine derivative … (% w/w)” value ([1]; 3 months) was 1.01 % w/w and the “5-methyl-(6S)-tetrahydrofolic acid (% rel.)” value ([1]; 3 months) was 97.2 % rel. The “5-methyl-(6S)-tetrahydrofolic acid (% w/w)” value ([1]; 6 months) was 78.0 % w/w, the “Pyrazino-s-triazine derivative … (% w/w)” value ([1]; 6 months) was 0.96 % w/w and the “5-methyl-(6S)-tetrahydrofolic acid (% rel.)” value ([1]; 6 months) was 96.6 % rel. The “5-methyl-(6S)-tetrahydrofolic acid (% w/w)” value ([1]; 9 months) was 78.8 % w/w, the “Pyrazino-s-triazine derivative … (% w/w)” value ([1]; 9 months) was 0.93 % w/w and the “5-methyl-(6S)-tetrahydrofolic acid (% rel.)” value ([1]; 9 months) was 97.6 % rel. For the same molecule, the “5-methyl-(6S)-tetrahydrofolic acid (% w/w)” value ([1]; 12 months) was 77.8 % w/w, the “Pyrazino-s-triazine derivative … (% w/w)” value ([1]; 12 months) was 0.95 % w/w and the “5-methyl-(6S)-tetrahydrofolic acid (% rel.)” value ([1]; 12 months) was 96.3 % rel. The “5-methyl-(6S)-tetrahydrofolic acid (% w/w)” value ([2]; 0 months) was 80.7 % w/w, the “Pyrazino-s-triazine derivative … (% w/w)” value ([2]; 0 months) was 0.20 % w/w and the “5-methyl-(6S)-tetrahydrofolic acid (% rel.)” value ([2]; 0 months) was 100.0 % rel. For the same molecule, the “5-methyl-(6S)-tetrahydrofolic acid (% w/w)” value ([2]; 3 months) was 79.0 % w/w, the “Pyrazino-s-triazine derivative … (% w/w)” value ([2]; 3 months) was 0.84 % w/w and the “5-methyl-(6S)-tetrahydrofolic acid (% rel.)” value ([2]; 3 months) was 97.9 % rel. The “5-methyl-(6S)-tetrahydrofolic acid (% w/w)” value ([2]; 6 months) was 77.7 % w/w, the “Pyrazino-s-triazine derivative … (% w/w)” value ([2]; 6 months) was 0.90 % w/w and the “5-methyl-(6S)-tetrahydrofolic acid (% rel.)” value ([2]; 6 months) was 96.3 % rel. For the same molecule, the “5-methyl-(6S)-tetrahydrofolic acid (% w/w)” value ([2]; 9 months) was 78.5 % w/w, the “Pyrazino-s-triazine derivative … (% w/w)” value ([2]; 9 months) was 0.85 % w/w and the “5-methyl-(6S)-tetrahydrofolic acid (% rel.)” value ([2]; 9 months) was 97.3 % rel. For the same molecule, the “5-methyl-(6S)-tetrahydrofolic acid (% w/w)” value ([2]; 12 months) was 77.9 % w/w, the “Pyrazino-s-triazine derivative … (% w/w)” value ([2]; 12 months) was 0.86 % w/w and the “5-methyl-(6S)-tetrahydrofolic acid (% rel.)” value ([2]; 12 months) was 96.5 % rel. The “solubility (kinetic solubility) in water” value [3] was “smaller than 10 mg per 1 ml of water”.
In the case of CN1c2c(nc(N)[nH]c2=O)NC[C@@H]1CNc1ccc(C(=O)N[C@@H](CCC(=O)[O-])C(=O)[O-])cc1.[Na+].[Na+] [sodium salt of 5-methyl-(6S)-tetrahydrofolic acid], the “5-methyl-(6S)-tetrahydrofolic acid (% w/w)” value ([1]; 0 months) is reported as 82.3 % w/w, the “Pyrazino-s-triazine derivative … (% w/w)” value ([1]; 0 months) is reported as 0.07 % w/w and the “5-methyl-(6S)-tetrahydrofolic acid (% rel.)” value ([1]; 0 months) is reported as 100.0 % rel. For the same molecule, the “5-methyl-(6S)-tetrahydrofolic acid (% w/w)” value ([1]; 3 months) was 78.6 % w/w, the “Pyrazino-s-triazine derivative … (% w/w)” value ([1]; 3 months) was 1.52 % w/w and the “5-methyl-(6S)-tetrahydrofolic acid (% rel.)” value ([1]; 3 months) was 95.6 % rel. For the same molecule, the “5-methyl-(6S)-tetrahydrofolic acid (% w/w)” value ([1]; 6 months) was 77.3 % w/w, the “Pyrazino-s-triazine derivative … (% w/w)” value ([1]; 6 months) was 1.69 % w/w and the “5-methyl-(6S)-tetrahydrofolic acid (% rel.)” value ([1]; 6 months) was 94.0 % rel. The “5-methyl-(6S)-tetrahydrofolic acid (% w/w)” value ([1]; 9 months) was 77.9 % w/w, the “Pyrazino-s-triazine derivative … (% w/w)” value ([1]; 9 months) was 1.51 % w/w and the “5-methyl-(6S)-tetrahydrofolic acid (% rel.)” value ([1]; 9 months) was 94.7 % rel. For the same molecule, the “5-methyl-(6S)-tetrahydrofolic acid (% w/w)” value ([2]; 0 months) was 82.3 % w/w, the “Pyrazino-s-triazine derivative … (% w/w)” value ([2]; 0 months) was 0.07 % w/w and the “5-methyl-(6S)-tetrahydrofolic acid (% rel.)” value ([2]; 0 months) was 100.0 % rel. For the same molecule, the “5-methyl-(6S)-tetrahydrofolic acid (% w/w)” value ([2]; 3 months) was 80.0 % w/w, the “Pyrazino-s-triazine derivative … (% w/w)” value ([2]; 3 months) was 1.01 % w/w and the “5-methyl-(6S)-tetrahydrofolic acid (% rel.)” value ([2]; 3 months) was 97.3 % rel. The “5-methyl-(6S)-tetrahydrofolic acid (% w/w)” value ([2]; 6 months) was 78.6 % w/w, the “Pyrazino-s-triazine derivative … (% w/w)” value ([2]; 6 months) was 1.31 % w/w and the “5-methyl-(6S)-tetrahydrofolic acid (% rel.)” value ([2]; 6 months) was 95.5 % rel. For the same molecule, the “5-methyl-(6S)-tetrahydrofolic acid (% w/w)” value ([2]; 9 months) was 74.7 % w/w, the “Pyrazino-s-triazine derivative … (% w/w)” value ([2]; 9 months) was 1.42 % w/w and the “5-methyl-(6S)-tetrahydrofolic acid (% rel.)” value ([2]; 9 months) was 90.8 % rel. For the same molecule, the “stability over a long period of time compared to the crystalline calcium salt” value ([2]; summary of Tables 1 to 4 (25° C./60% rh and 40° C./75% rh)) was “comparable stability” and the “solubility (kinetic solubility) in water” value [3] was “greater than 100 mg per 1 ml of water”.
